Here are results for four compounds from patent US20120095058A1, “Method of preventing survival of retrovirally cells and of inhibiting formation of infectious retroviruses” (priority 2003, published 2012).

The test system of assay [1] is HIV-1 infected H9 cells. Briefly: Apoptosis of HIV-1 infected H9 cells by TUNEL flow cytometry. The note with it: for apoptosis at maximal concentration: H9 cells, IMP 400 μM, DES 20 μM; for initiation of apoptosis: HIV-1 infected lymphocyte cell line H9, dose dependence. It counts as cell-based, human. The method, then:
(§1) Methods: The drug deferiprone (DEF) and ciclopirox (CPX), known as DOHH inhibitors, were compared to the chelators 2-imidazoyl-4-methylphenol (IMP) and desferal (DES). Apoptosis of HIV-1 infected H9 cells, HPV-16 infected SiHa cells, and uninfected lymphocytes was analyzed by TUNEL flow cytometry. DOHH) activity was measured by metabolic labeling with 3H-spennidine.

Assay [2] has as its target T1, deoxyhypusine hydroxylase (DOHH) (Homo sapiens, UniProt Q9BU89).
T1 construct: endogenous in cells; host or cells: HIV-1 infected H9 cells
T1 sequence (Q9BU89 1-302): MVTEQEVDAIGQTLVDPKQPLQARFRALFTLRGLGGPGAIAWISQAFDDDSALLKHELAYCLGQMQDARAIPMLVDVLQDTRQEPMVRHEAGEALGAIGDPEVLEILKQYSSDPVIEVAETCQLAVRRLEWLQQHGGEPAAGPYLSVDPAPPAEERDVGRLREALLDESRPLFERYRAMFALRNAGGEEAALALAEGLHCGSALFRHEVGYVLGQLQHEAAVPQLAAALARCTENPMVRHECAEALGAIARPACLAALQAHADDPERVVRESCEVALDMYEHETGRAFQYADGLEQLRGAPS
Description: DOHH activity in HIV-1 infected H9 cells by metabolic labeling with 3H-spermidine. It is filed as cell-based. Further details: inhibition of DOHH: dose or concentration left out as unconfirmed. The note with it: for concentration with complete suppression of DOHH activity: H9 cells; for inhibition of cellular DOHH: HIV-1 infected H9 cells, dose dependence. The method, then:
as §1
DOHH activity was measured by metabolic labeling with radioactive spermidine (see FIG. 2), followed by protein hydrolysis\ and amino acid analysis as reported (Hanauske-Abel et al., FEBS Left. 366, 92-98, 1995, which is hereby incorporated by reference). This finding corroborates the results obtained with purified DOHH (FIG. 3) and is consistent with the findings presented in FIG. 1.

Assay [3] deals with T1, deoxyhypusine hydroxylase (DOHH). Briefly: DOHH activity in HPV-16 infected SiHa cells by metabolic labeling with 3H-spermidine. It is filed as cell-based. Further details: inhibition of DOHH: dose or concentration left out as unconfirmed. The settings on record: for inhibition of DOHH: HPV-positive SiHa cells. The method, then:
as §1

Assay [4] concerns uninfected lymphocytes. Description: Apoptosis of uninfected lymphocytes by TUNEL flow cytometry. It is filed as cell-based, human. The settings on record: for apoptosis of lymphocytes harvested from healthy volunteers: exposed for 20 hours. The method, then: as §1
Assay [5] relates to HPV-16 infected SiHa cells. Description: Apoptosis of HPV-16 infected SiHa cells by TUNEL flow cytometry. It counts as cell-based, human. The method, then: as §1
The subject of assay [6] is HIV-1 spliced and unspliced transcripts. Description: RNase protection assay of spliced and unspliced HIV-1 transcripts in transfected 293T cells. It is filed as cell-based, human. The settings on record: 30 μM, FIG. 1A. The method, then:
(§2) (A, B) Inhibition of accumulation of spliced and unspliced HIV transcripts. Human 293 T cells were co-transfected with plasmids carrying the HIV-1 molecular clone (10 μg) and a CMV-Renilla luciferase construct (2 μg). Ciclopirox (CPX) or Princeton 2 (P2) were added to a final concentration of 30 μM 3 hours later. RNA was isolated from nuclear and cytoplasmic fractions at 15 hours after transfection. RNase protection assays used probes for the HIV-1 major splice donor site sequence (A), and Renilla luciferase (B). Arrows indicate the positions of protected probe fragments corresponding to unspliced (US) and spliced (S) HIV-1 RNA and Renilla luciferase (R-Luc). Lanes marked ‘Probe’ contain undigested probe RNA equivalent to 10% of the input to protection assays. The radioactivity of the protected bands, quantified with a phosphoimager using ImageQuant, is expressed in relative units.
(§3) Cells and plasmids. 293T cells were grown in Dulbecco's Modified Eagle's medium with 10% fetal bovine serum. pBSIIKS+HIV(+80-341) was constructed by subcloning the PCR-amplified HIV-1 sequence corresponding to nucleotides +80 to +341 of the HIV molecular clone (pNL4-3-Luc E-) between the SmaI and HindIII sites of the pBluescriptllKS+ vector (Stratagene, Calif.). Plasmids pSP-rluc and pCMV-Renilla were purchased from Promega (Madison, Wis.). […]

For assay [7], the system named is CMV-Renilla luciferase transcript. Briefly: RNase protection assay of CMV-Renilla luciferase transcript in transfected 293T cells. The note with it: 30 μM, FIG. 1B. It is filed as cell-based, human. The method, then: as §2, §3
The test system of assay [8] is HIV-1 molecular clone pNL4-3-Luc E-. Briefly: Firefly luciferase reporter in full-length HIV-1 molecular clone pNL4-3-Luc E-, 293T cells. It counts as cell-based, human. The note with it: 30 μM, 12 hours post-transfection, FIG. 1C left. The method, then: (§4) (C) Specificity of inhibition by CPX. Cells were co-transfected with 500 ng pNL4-3-Luc E-, or with 100 ng of HIV-1 LTR-firefly luciferase reporter plasmid and 20 ng of pRSV-Tat, together with 100 ng of CMV-Renilla luciferase reporter plasmid. Buffer (Control), 30 μM ciclopirox (CPX), or 30 μM Princeton 2 (P2) was added during transfection, and cells were harvested at 12 hours post-transfection for luciferase assay. Results are presented as the ratio of firefly luciferase to Renilla luciferase, normalized to the controls, with standard deviations indicated.
(§5) Cells and plasmids. 293T cells were grown in Dulbecco's Modified Eagle's medium with 10% fetal bovine serum. pBSIIKS+HIV(+80-341) was constructed by subcloning the PCR-amplified HIV-1 sequence corresponding to nucleotides +80 to +341 of the HIV molecular clone (pNL4-3-Luc E-) between the SmaI and HindIII sites of the pBluescriptllKS+ vector (Stratagene, Calif.). Plasmids pSP-rluc and pCMV-Renilla were purchased from Promega (Madison, Wis.). The plasmids pRSV-Tat and pLTR-firefly luciferase were described earlier (Hogue et al. MCB 2003). The HIV-1 molecular clone pNL4-3-Luc E-, in which part of the Nef gene is replaced by firefly luciferase and the envelope gene is mutated (Chen B. K., J. Virol. 1994), was generously supplied by Dr. D. Baltimore.
(§6) Gene expression assays. […]

Assay [9] concerns HIV-1 LTR-firefly luciferase reporter. Description: HIV-1 LTR-firefly luciferase reporter with pRSV-Tat, 293T cells. It counts as cell-based, human. The settings on record: 30 μM, compared to control and P2, FIG. 1C right. The method, then: as §4, §5, §6
In assay [10] the target is T2, purified DOHH (Homo sapiens, UniProt Q9BU89).
T2 sequence (Q9BU89 1-302): T1 sequence (Q9BU89 1-302)
Briefly: Inhibition of purified DOHH with labeled deoxyhypusine-containing eIF5A substrate. It counts as biochemical. The settings on record: FIG. 3. The method, then:
The assay was conducted by using purified enzyme and offering deoxhypusine-containing, deoxhypusine-labeled eIF5A as substrae, plus the appropriate cofactors (see FIG. 2). Enzyme activity was assessed by determining the amount of mature, ie. radioactive hypusine-containing eIF5A via protein hydrolysis, followed by amino acid analysis.

Assay [11] relates to HIV-1. Description: p24 formation in HIV-1-infected H9 cells by immunoassay. The note with it: FIG. 5. It is filed as cell-based, human.
Assay [12] has as its system patient-isolate of HIV-1. Briefly: HIV-1 p24 and RNA formation in fresh peripheral blood mononuclear cells acutely infected with a patient isolate. It is filed as cell-based, human. The note with it: acutely infected PBMC. An excerpt: This system is considered a close model for the actual infection of a human being by ‘wild-type’ HIV-1.
For assay [13], the system named is peripheral blood mononuclear cells acutely infected with HIV-1. Briefly: Apoptosis in fresh peripheral blood mononuclear cells acutely infected with a patient isolate of HIV-1. The settings on record: preferentially when acutely infected with HIV-1, FIG. 8. It is filed as cell-based, human. An excerpt: This effect is ascribed to the suppression of retroviral antiapoptotic proteins as part of the general suppression of retroviral protein synthesis, as exemplified by the decrease in p24 (FIG. 6).

The test system of assay [14] is patient-isolate of HIV-1. Briefly: HIV-1 p24, RNA and proviral DNA in peripheral blood mononuclear cells chronically infected with a patient isolate. It counts as cell-based, human. The note with it: FIG. 9. The method, then: The double y-axis plot of FIG. 9 summarizes the effect of deferiprone on HIV protein synthesis (p24 [left y-axis]), HIV RNA synthesis (copies [right y-axis]), and the presence of HIV DNA, integrated as provirus into the genome of the infected host cells. The cell system and mode of infection used are the same as in FIGS. 6 to 8, i.e. freshly isolated peripheral blood mononuclear cells infected with a patient-isolate of HIV-1, except that the compound was added only after the full-blown infection had developed. The design requires the addition of uninfected cells very second day, so as to keep the infection from burning out. […] The near-eradication of provirus is attributed to the selective apoptotic ablation of HIV-infected cells by DOHH inhibitors (see FIG. 8).

With 2-imidazoyl-4-methylphenol [IMP], the “apoptosis at maximal concentration” value in [1] is recorded as “failed to elicit apoptosis”. For the same compound, the “inhibition of DOHH” value in assay [2] (HIV-positive H9 cells) and in [3] was “uniformly ineffective” in each case.
With `CC(=O)N(O)CCCCCNC(=O)CCC(=O)N(O)CCCCCNC(=O)CCC(=O)N(O)CCCCCN` [DES], the “apoptosis at maximal concentration” value in assay [1] is “failed to elicit apoptosis”. For the same compound, in assay [4], the “apoptosis of lymphocytes harvested from healthy volunteers” value (shortened to “apoptosis of lymphocytes harvested”) is reported as “failed to respond with apoptosis”.
For `Cc1cc(C2CCCCC2)n(O)c(=O)c1` [ciclopirox, 6-cyclohexyl-l-hydroxy-4-methyl-2(1H)-pyridone], in [1] (40 μM, 18 hours (overnight), HIV-1 infected H9 cells), the “apoptosis, share of all cells” value was “more than 30%”. In addition, the values for the initiation of apoptosis entry in assay [1] and in assay [1] (listed as CPX) were “dose-dependent initiation of apoptosis” and “triggered dose-dependent apoptosis”, respectively. The “potency in causing a very similar spectrum of effects” value in assay [1] (comparison compound class not given) is given as “about ten times more potent”. Besides, in assay [2], the “concentration with complete suppression of DOHH activity” value came to 40 µM. Besides, the “inhibition of cellular DOHH” value in assay [2] was “dose-dependent inhibition”; in [2] (listed as (2)) it was “dose-dependent inhibition”; in assay [2] (listed as CPX), “inhibited DOHH”. For the same compound, the “DOHH activity of SiHa cells” value in [3] (40 μM) is “totally suppressed”. Moreover, in [3] (dose dependence), the “inhibition of DOHH” value was “inhibited DOHH”. Also, the “apoptosis in HPV infected human keratinocytes” value in assay [5] was “does not trigger apoptosis”. The “apoptosis in SiHa cells” value in assay [5] (40 μM, even after 120 hours) was “did not initiate apoptosis”. Further, the “apoptosis in native human lymphocytes not infected by HIV-1” value in [4] is given as “does not trigger apoptosis”. Further, the “apoptosis of lymphocytes harvested” value in assay [4] was “failed to respond with apoptosis”. In addition, the “accumulation of spliced and unspliced HIV-1 transcripts” value in [6] is “selectively suppresses”. Besides, in [7], the “transcript accumulation encoded by cytomegalovirus (CMV)” value is on record as “does not affect transcript accumulation”. Also, the entries for the “expression of firefly luciferase reporter encoded in full-length genomic HIV-1 clone” value in assay [8] and in assay [8] (listed as Ciclopirox) were “distinctly more inhibitory effect than P2” and “reduces gene expression”, respectively. Further, in assay [9], the “luciferase gene expression from HIV-1 LTR reporter lacking RRE” value was “did not reduce luciferase gene expression”. In addition, in assay [10], the “inhibition of purified DOHH” value was “disctinctly more susceptible to inhibition”. Moreover, the “retroviral protein synthesis assessed via p24” value in assay [11] is given as “suppressed retroviral protein synthesis”. The “formation of retroviral p24 protein” value in assay [12] (FIG. 6) is listed as “efficient in suppressing”. The “formation of retroviral RNA, viral load” value in assay [12] (PCR, FIG. 7) is on record as “efficient in suppressing”. In assay [13], the “apoptosis in PBMC” value is recorded as “triggers apoptosis”.
For the compound `Cc1c(O)c(=O)ccn1C` [deferiprone], the initiation of apoptosis entry in assay [1] is reported as “triggered dose-dependent apoptosis”. In assay [2], the “concentration with complete suppression of DOHH activity” value worked out at 200 µM and the “inhibition of cellular DOHH” value is “inhibited DOHH”. In addition, in assay [3] (dose dependence), the “inhibition of DOHH” value is listed as “inhibited DOHH”. Moreover, the “apoptosis of lymphocytes harvested” value in assay [4] is reported as “failed to respond with apoptosis”. Besides, the “HIV protein synthesis (p24)” value in [14] (compound added after full-blown infection) is reported as “undetectable”. Besides, the “HIV DNA integrated as provirus” value in [14] (end of experiment) is “at best a trace of integrated provirus”. For the same compound, the “HIV RNA” value in assay [14] (over the days after p24 became undetectable) is listed as “dropped to the limit of detection”.
